Assays:
CDK2/Cyclin A = CDK2/Cyclin A (Homo sapiens, UniProt P24941); assay: Inhibition of CDK2/Cyclin A Retinoblastoma Kinase Activity; type: biochemical; settings: 0.03 μM compound; for CDK2 % Inhibition At 0.03 μM: Table 2; for CDK2 % Inhibition at 0.03 μM: Table 3
Outline: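 Percent inhibition is calculated against DMSO-only wells after subtracting no-enzyme background. The enzyme is human CDK2 complexed with proteolyzed cyclin A, used at 10 nM or 19 nM on an Rb fragment with 25 μM [32/33P]ATP, at pH 7.4 and 30° C.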

[1] = molecular target: human CDK4 and genetically truncated (1-264) cyclin D3 (Homo sapiens, UniProt P11802); assay: Inhibition of CDK4/Cyclin D Retinoblastoma Kinase Activity; type: biochemical; settings: 0.03 μM compound
Outline: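 Apparent Ki values derive from fitting activity at varied inhibitor concentrations to a competitive (or competitive tight-binding) model. Kinase reactions used 5 nM CDK4/cyclin D3(1-264), Rb fragment substrate and 25 μM ATP. Incubation ran 20 min at 30 °C, extended to 60 min under linear conditions for tight binders.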

HCT-116 cell line = assay: Inhibition of cell growth, tetrazolium salt (MTT) assay; type: cell-based; settings: HCT-116; for HCT-116 % Inhibition at 0.25 μM: 0.25 μM compound; for HCT-116 % Inhibition at 0.1 μM: 0.1 μM compound
Outline: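 Growth inhibition by MTT reduction at 540 nm (0.2 mg/mL, 4 h at 37° C, formazan dissolved in DMSO), normalized to cells given only 0.5% v/v DMSO. HCT-116 cultures in McCoy's 5A were dosed 4 h post-plating and kept three to five days at 37° C, 5% CO2.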

Sequence of human CDK4 and genetically truncated (1-264) cyclin D3 (P11802 whole entry, the tested form may be a part): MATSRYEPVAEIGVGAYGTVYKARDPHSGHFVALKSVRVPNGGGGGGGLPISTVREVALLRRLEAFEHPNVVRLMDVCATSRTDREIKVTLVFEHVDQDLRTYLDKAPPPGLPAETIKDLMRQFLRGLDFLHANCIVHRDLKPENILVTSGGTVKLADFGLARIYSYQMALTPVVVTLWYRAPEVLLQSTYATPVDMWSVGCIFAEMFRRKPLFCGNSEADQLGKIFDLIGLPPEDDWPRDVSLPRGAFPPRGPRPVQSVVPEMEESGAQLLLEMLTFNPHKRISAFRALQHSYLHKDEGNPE
Sequence of human CDK4 and genetically truncated (1-264) cyclin D3 (P30281 1-264 partner): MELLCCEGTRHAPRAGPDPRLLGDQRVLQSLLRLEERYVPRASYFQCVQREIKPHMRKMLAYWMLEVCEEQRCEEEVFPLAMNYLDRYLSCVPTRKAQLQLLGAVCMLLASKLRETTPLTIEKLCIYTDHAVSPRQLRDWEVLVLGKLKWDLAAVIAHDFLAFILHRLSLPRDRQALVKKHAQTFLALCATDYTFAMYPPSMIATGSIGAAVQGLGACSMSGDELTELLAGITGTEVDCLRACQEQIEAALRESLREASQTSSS

CDK2 % Inhibition At 0.03 μM (CDK2/Cyclin A)	CDK4 % Inhibition at 0.03 μM ([1]; Table 2)	CDK2 % Inhibition At 0.03 μM (CDK2/Cyclin A; 0.03 µM)	CDK4 % Inhibition at 0.03 μM ([1]; Table 2, 0.03 µM)	CDK2 % Inhibition at 0.03 μM (CDK2/Cyclin A)	CDK4 % Inhibition at 0.03 μM ([1]; Table 3)	Compound	HCT-116 % Inhibition at 0.25 μM (HCT-116 cell line; Table 2)	HCT-116 % Inhibition at 0.25 μM (HCT-116 cell line; Table 2, 0.25 µM)	HCT-116 % Inhibition at 0.1 μM (HCT-116 cell line; Table 3)	HCT-116 % Inhibition at 0.25 μM (HCT-116 cell line; Table 3)
32%	8%					COC(=O)[C@H](COC(C)(C)C)NC(=O)N1CCC(Nc2nc(N)c(C(=O)c3c(F)cccc3F)s2)CC1 [Example O79]	49%			
23%	15%					CCOC(=O)CC[C@H](NC(=O)N1CCC(Nc2nc(N)c(C(=O)c3c(F)cccc3F)s2)CC1)C(=O)OCC [Example O80]	46%			
25%	−4%					CCCc1ccccc1NC(=O)N1CCC(Nc2nc(N)c(C(=O)c3c(F)cccc3F)s2)CC1 [Example O81]	44%			
34%	4%					Nc1nc(NC2CCN(C(=O)Nc3ccccc3Oc3ccccc3)CC2)sc1C(=O)c1c(F)cccc1F [Example O82]	34%			
29%	12%					CCCCCCCOc1ccc(NC(=O)N2CCC(Nc3nc(N)c(C(=O)c4c(F)cccc4F)s3)CC2)cc1 [Example O83]	59%			
		23%	14%			COc1ccc(NC(=O)N2CCC(Nc3nc(N)c(C(=O)c4c(F)cccc4F)s3)CC2)cc1 [Example O84]		42%		
34%	8%					Nc1nc(NC2CCN(C(=O)Nc3cc(C(F)(F)F)ccc3F)CC2)sc1C(=O)c1c(F)cccc1F [Example O85]	47%			
32%	23%					Nc1nc(NC2CCN(C(=O)Nc3cccnc3)CC2)sc1C(=O)c1c(F)cccc1F [Example O86]	47%			
25%	16%					Nc1nc(NC2CCN(C(=O)NCCc3ccc4c(c3)OCO4)CC2)sc1C(=O)c1c(F)cccc1F [Example O87]	44%			
31%	12%					CN1C(=O)c2ccc(NC(=O)N3CCC(Nc4nc(N)c(C(=O)c5c(F)cccc5F)s4)CC3)cc2C1=O [Example O88]	45%			
				45%	51%	Nc1nc(NC2CCN(S(=O)(=O)c3cccc4ccccc34)CC2)sc1C(=O)c1c(F)cccc1F [Example P1]			9%	32%
				43%	69%	CN(C)c1cccc2c(S(=O)(=O)N3CCC(Nc4nc(N)c(C(=O)c5c(F)cccc5F)s4)CC3)cccc12 [Example P2]			15%	24%
				64%	65%	Nc1nc(NC2CCN(S(=O)(=O)c3ccc4ccccc4c3)CC2)sc1C(=O)c1c(F)cccc1F [Example P3]			17%	23%
				15%	32%	CC(=O)Nc1nc(C)c(S(=O)(=O)N2CCC(Nc3nc(N)c(C(=O)c4c(F)cccc4F)s3)CC2)s1 [Example P4]			18%	24%
				64%	70%	Nc1nc(NC2CCN(S(=O)(=O)c3cccs3)CC2)sc1C(=O)c1c(F)cccc1F [Example P5]			27%	32%
				−32%	18%	Nc1nc(NC2CCN(S(=O)(=O)c3cccc4cccnc34)CC2)sc1C(=O)c1c(F)cccc1F [Example P6]			22%	23%
				49%	47%	CN(C)S(=O)(=O)N1CCC(Nc2nc(N)c(C(=O)c3c(F)cccc3F)s2)CC1 [Example P7]			25%	23%
				73%	72%	Nc1nc(NC2CCN(S(=O)(=O)c3ccccc3)CC2)sc1C(=O)c1c(F)cccc1F [Example P8]			37%	33%

CDK2 % Inhibition At 0.03 μM (CDK2/Cyclin A)	CDK4 % Inhibition at 0.03 μM ([1]; Table 2)	CDK2 % Inhibition At 0.03 μM (CDK2/Cyclin A; 0.03 µM)	CDK4 % Inhibition at 0.03 μM ([1]; Table 2, 0.03 µM)	CDK2 % Inhibition at 0.03 μM (CDK2/Cyclin A)	CDK4 % Inhibition at 0.03 μM ([1]; Table 3)	Compound	HCT-116 % Inhibition at 0.25 μM (HCT-116 cell line; Table 2)	HCT-116 % Inhibition at 0.25 μM (HCT-116 cell line; Table 2, 0.25 µM)	HCT-116 % Inhibition at 0.1 μM (HCT-116 cell line; Table 3)	HCT-116 % Inhibition at 0.25 μM (HCT-116 cell line; Table 3)
				−17%	46%	CC(C)c1cc(C(C)C)c(S(=O)(=O)N2CCC(Nc3nc(N)c(C(=O)c4c(F)cccc4F)s3)CC2)c(C(C)C)c1 [Example P9]			13%	35%
				−14%	11%	Cc1cc(C)c(S(=O)(=O)N2CCC(Nc3nc(N)c(C(=O)c4c(F)cccc4F)s3)CC2)c(C)c1 [Example P10]			14%	35%
				−23%	22%	Nc1nc(NC2CCN(S(=O)(=O)c3cccc([N+](=O)[O-])c3)CC2)sc1C(=O)c1c(F)cccc1F [Example P11]			19%	27%
				54%	54%	Nc1nc(NC2CCN(S(=O)(=O)c3ccc(Br)cc3)CC2)sc1C(=O)c1c(F)cccc1F [Example P12]			24%	29%
				75%	77%	Nc1nc(NC2CCN(S(=O)(=O)c3ccc(F)cc3)CC2)sc1C(=O)c1c(F)cccc1F [Example P13]			19%	31%
				60%	67%	Nc1nc(NC2CCN(S(=O)(=O)c3ccc(Cl)cc3)CC2)sc1C(=O)c1c(F)cccc1F [Example P14]			23%	25%
				50%	65%	Nc1nc(NC2CCN(S(=O)(=O)c3ccc(Cl)c([N+](=O)[O-])c3)CC2)sc1C(=O)c1c(F)cccc1F [Example P15]			30%	34%
				71%	67%	Nc1nc(NC2CCN(S(=O)(=O)c3ccc(I)cc3)CC2)sc1C(=O)c1c(F)cccc1F [Example P16]			34%	35%
				77%	78%	CC(=O)Nc1ccc(S(=O)(=O)N2CCC(Nc3nc(N)c(C(=O)c4c(F)cccc4F)s3)CC2)cc1 [Example P17]			14%	36%
				−20%	6%	CN(C)c1ccc(N=Nc2ccc(S(=O)(=O)N3CCC(Nc4nc(N)c(C(=O)c5c(F)cccc5F)s4)CC3)cc2)cc1 [Example P18]			20%	36%
				63%	73%	Nc1nc(NC2CCN(S(=O)(=O)c3ccc([N+](=O)[O-])cc3)CC2)sc1C(=O)c1c(F)cccc1F [Example P19]			19%	30%
				78%	76%	COc1ccc(S(=O)(=O)N2CCC(Nc3nc(N)c(C(=O)c4c(F)cccc4F)s3)CC2)cc1 [Example P20]			23%	43%
				23%	32%	Nc1nc(NC2CCN(S(=O)(=O)c3ccc(C(=O)O)cc3)CC2)sc1C(=O)c1c(F)cccc1F [Example P21]			19%	29%
				29%	38%	CC(C)(C)c1ccc(S(=O)(=O)N2CCC(Nc3nc(N)c(C(=O)c4c(F)cccc4F)s3)CC2)cc1 [Example P22]			27%	31%
				64%	67%	Cc1ccc(S(=O)(=O)N2CCC(Nc3nc(N)c(C(=O)c4c(F)cccc4F)s3)CC2)cc1 [Example P23]			19%	32%
				5%	24%	CC(C)S(=O)(=O)N1CCC(Nc2nc(N)c(C(=O)c3c(F)cccc3F)s2)CC1 [Example P24]			26%	36%
				62%	82%	Nc1nc(NC2CCN(S(=O)(=O)Cc3ccccc3)CC2)sc1C(=O)c1c(F)cccc1F [Example P25]			8%	33%

From US20050101595A1, “N-containing cycloalkyl-substituted amino-thiazole derivatives and pharmaceutical compositions for inhibiting cell proliferation and methods for their use” (PFIZER INC., priority 2003, published 2005)
